According to patent publication US20220323406A1, “METHODS AND COMPOSITIONS FOR DIFFERENTIATING STEM CELLS” (Massachusetts Institute of Technology, priority 2019, published 2022):

Legend:
[1] = test system: ENR+CD organoids (ISC to Paneth cell differentiation); experiment: Primary screen: basal (non-stimulated) lysozyme secretion LYZ.NS, 2.5-D 384-well ENR+CD organoid differentiation; format: cell-based, mouse; conditions: primary screen; for Z.LYZ.NS: standard z score
Source text: (§1) High-throughput screening.

ENR+CD organoids = experiment: Primary screen: ATP (CellTiter-Glo 3D, CTG) cell number/viability, 2.5-D 384-well ENR+CD organoids; conditions: primary screen; for Z.CTG: standard z score;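 on all read-outs here: compounds given at plating and again on day 3 over a 6-day differentiation from ENR+CV stem-cell-enriched precursors, ATP measured on day 6, plate median as control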
[2] = test system: ENR+CD organoids (ISC to Paneth cell differentiation); experiment: Primary screen: CCh-stimulated lysozyme secretion LYZ.S, 2.5-D 384-well ENR+CD organoid differentiation; format: cell-based, mouse; conditions: primary screen
Source text: as §1

SMILES | Z.LYZ.NS (standard z score) ([1]; dose 0.08 uM) | Z.LYZ.NS (standard z score) ([1]; dose 0.40 uM) | Z.LYZ.NS (standard z score) ([1]; dose 2.00 uM) | Z.LYZ.NS (standard z score) ([1]; dose 10.00 uM) | Z.CTG (standard z score) (ENR+CD organoids; dose 0.08 uM) | Z.CTG (standard z score) (ENR+CD organoids; dose 0.40 uM) | Z.CTG (standard z score) (ENR+CD organoids; dose 2.00 uM) | Z.CTG (standard z score) (ENR+CD organoids; dose 10.00 uM) | Dose.FC.LYZ.NS ([1]; dose 0.08 uM) [log2 fold change] | Dose.FC.LYZ.NS ([1]; dose 0.40 uM) [log2 fold change] | Dose.FC.LYZ.NS ([1]; dose 2.00 uM) [log2 fold change] | Dose.FC.LYZ.NS ([1]; dose 10.00 uM) [log2 fold change] | Dose.FC.CTG (ENR+CD organoids; dose 0.08 uM) [log2 fold change] | Dose.FC.CTG (ENR+CD organoids; dose 0.40 uM) [log2 fold change] | Dose.FC.CTG (ENR+CD organoids; dose 2.00 uM) [log2 fold change] | Dose.FC.CTG (ENR+CD organoids; dose 10.00 uM) [log2 fold change] | Dose.FC.LYZ.S ([2]; dose 0.08 uM) [log2 fold change] | Dose.FC.LYZ.S ([2]; dose 0.40 uM) [log2 fold change] | Dose.FC.LYZ.S ([2]; dose 2.00 uM) [log2 fold change] | Dose.FC.LYZ.S ([2]; dose 10.00 uM) [log2 fold change] | other results
Cc1cnc(NC(=O)Nc2cc(Br)c(C)cc2OC[C@@H]2CNCCO2)cn1 [LY2603618] | −0.046 | −0.791 | −1.685 | −2.026 | −0.010 | −0.567 | −0.946 | −2.347 |  |  |  |  |  |  |  |  |  |  |  |  | Dose.FC.LYZ.NS (log2 fold change) ([1]; dose 0.08 uM): −0.005; Dose.FC.LYZ.NS (log2 fold change) ([1]; dose 0.40 uM): −0.091; Dose.FC.LYZ.NS (log2 fold change) ([1]; dose 2.00 uM): −0.193; Dose.FC.LYZ.NS (log2 fold change) ([1]; dose 10.00 uM): −0.233; Dose.FC.CTG (log2 fold change) (ENR+CD organoids; dose 0.08 uM): −0.004; Dose.FC.CTG (log2 fold change) (ENR+CD organoids; dose 0.40 uM): −0.238; Dose.FC.CTG (log2 fold change) (ENR+CD organoids; dose 2.00 uM): −0.396; Dose.FC.CTG (log2 fold change) (ENR+CD organoids; dose 10.00 uM): −0.983; Dose.FC.LYZ.S (log2 fold change) ([2]; dose 0.08 uM): 0.009; Dose.FC.LYZ.S (log2 fold change) ([2]; dose 0.40 uM): −0.147; Dose.FC.LYZ.S (log2 fold change) ([2]; dose 2.00 uM): −0.269; Dose.FC.LYZ.S (log2 fold change) ([2]; dose 10.00 uM): −0.356
CCn1c2ccccc2c2cc(Nc3ccnc(NCCCN4CCOCC4)n3)ccc21 [EHop-016] |  |  |  |  |  |  |  |  | 0.177 | 0.035 | 0.029 | −0.203 | 0.081 | 0.062 | 0.088 | −0.757 | 0.091 | 0.012 | −0.011 | −0.299 | Z.LYZ.NS ([1]; dose 0.08 uM): 1.537; Z.LYZ.NS ([1]; dose 0.40 uM): 0.302; Z.LYZ.NS ([1]; dose 2.00 uM): 0.252; Z.LYZ.NS ([1]; dose 10.00 uM): −1.769; Z.CTG (ENR+CD organoids; dose 0.08 uM): 0.193; Z.CTG (ENR+CD organoids; dose 0.40 uM): 0.147; Z.CTG (ENR+CD organoids; dose 2.00 uM): 0.211; Z.CTG (ENR+CD organoids; dose 10.00 uM): −1.808
COc1cc(N2CCN(C)CC2)ccc1Nc1nccc(-c2cn(C)c3cnccc23)n1 [AZ191] | 1.111 | 0.717 | 0.507 | −1.289 | 0.697 | 0.804 | 0.358 | −1.272 | 0.128 | 0.082 | 0.058 | −0.148 | 0.292 | 0.337 | 0.150 | −0.533 | 0.143 | 0.199 | 0.097 | −0.200 | 
O=c1[nH]c2ccc(Cl)cc2c(N[C@@H]2CN3CCC2CC3)c1-c1nc2ccccc2[nH]1 [CHIR-124] |  |  |  |  |  |  |  |  | −0.155 | −0.240 | −0.220 | −0.140 | −0.256 | −0.853 | −0.861 | −1.555 | −0.267 | −0.339 | −0.352 | −0.332 | Z.LYZ.NS ([1]; dose 0.08 uM): −1.352; Z.LYZ.NS ([1]; dose 0.40 uM): −2.090; Z.LYZ.NS ([1]; dose 2.00 uM): −1.916; Z.LYZ.NS ([1]; dose 10.00 uM): −1.223; Z.CTG (ENR+CD organoids; dose 0.08 uM): −0.612; Z.CTG (ENR+CD organoids; dose 0.40 uM): −2.038; Z.CTG (ENR+CD organoids; dose 2.00 uM): −2.057; Z.CTG (ENR+CD organoids; dose 10.00 uM): −3.714
c1cc(-c2cnn3cc(-c4ccc(N5CCNCC5)cc4)cnc23)c2cccnc2c1 [LDN-212854] | 0.823 | 0.446 | −1.885 | −2.375 | 0.568 | 0.309 | −1.134 | −3.018 |  |  |  |  |  |  |  |  |  |  |  |  | Dose.FC.LYZ.NS (log2 fold change) ([1]; dose 0.08 uM): 0.095; Dose.FC.LYZ.NS (log2 fold change) ([1]; dose 0.40 uM): 0.051; Dose.FC.LYZ.NS (log2 fold change) ([1]; dose 2.00 uM): −0.217; Dose.FC.LYZ.NS (log2 fold change) ([1]; dose 10.00 uM): −0.273; Dose.FC.CTG (log2 fold change) (ENR+CD organoids; dose 0.08 uM): 0.238; Dose.FC.CTG (log2 fold change) (ENR+CD organoids; dose 0.40 uM): 0.129; Dose.FC.CTG (log2 fold change) (ENR+CD organoids; dose 2.00 uM): −0.475; Dose.FC.CTG (log2 fold change) (ENR+CD organoids; dose 10.00 uM): −1.263; Dose.FC.LYZ.S (log2 fold change) ([2]; dose 0.08 uM): 0.162; Dose.FC.LYZ.S (log2 fold change) ([2]; dose 0.40 uM): 0.026; Dose.FC.LYZ.S (log2 fold change) ([2]; dose 2.00 uM): −0.292; Dose.FC.LYZ.S (log2 fold change) ([2]; dose 10.00 uM): −0.399
Cn1cc(C2=C(c3cn(C4CCN(Cc5ccccn5)CC4)c4ccccc34)C(=O)NC2=O)c2ccccc21 [Enzastaurin (LY317615)] |  |  |  |  |  |  |  |  | 0.085 | 0.131 | 0.053 | −0.116 | 0.236 | 0.475 | 0.251 | −0.081 | 0.109 | 0.251 | 0.053 | −0.226 | Z.LYZ.NS ([1]; dose 0.08 uM): 0.744; Z.LYZ.NS ([1]; dose 0.40 uM): 1.143; Z.LYZ.NS ([1]; dose 2.00 uM): 0.458; Z.LYZ.NS ([1]; dose 10.00 uM): −1.012; Z.CTG (ENR+CD organoids; dose 0.08 uM): 0.565; Z.CTG (ENR+CD organoids; dose 0.40 uM): 1.135; Z.CTG (ENR+CD organoids; dose 2.00 uM): 0.600; Z.CTG (ENR+CD organoids; dose 10.00 uM): −0.194
C=CC(=O)Nc1cccc(Nc2nc(Nc3ccc(OCCOC)cc3)ncc2F)c1 [AVL-292] | 0.831 | 0.451 | −0.979 | −1.858 | 0.518 | 0.135 | −0.138 | −1.859 | 0.095 | 0.052 | −0.112 | −0.213 | 0.217 | 0.057 | −0.058 | −0.778 | 0.235 | 0.106 | −0.206 | −0.376 | 
CC(C)(C)c1cc(C(C)(C)C)c(NC(=O)c2c[nH]c3ccccc3c2=O)cc1O [Ivacaftor (VX-770)] | 0.864 | 1.109 | 0.717 | −1.240 | 0.558 | 0.347 | −0.354 | −1.123 |  |  |  |  |  |  |  |  |  |  |  |  | Dose.FC.LYZ.NS (log2 fold change) ([1]; dose 0.08 uM): 0.099; Dose.FC.LYZ.NS (log2 fold change) ([1]; dose 0.40 uM): 0.127; Dose.FC.LYZ.NS (log2 fold change) ([1]; dose 2.00 uM): 0.082; Dose.FC.LYZ.NS (log2 fold change) ([1]; dose 10.00 uM): −0.142; Dose.FC.CTG (log2 fold change) (ENR+CD organoids; dose 0.08 uM): 0.234; Dose.FC.CTG (log2 fold change) (ENR+CD organoids; dose 0.40 uM): 0.145; Dose.FC.CTG (log2 fold change) (ENR+CD organoids; dose 2.00 uM): −0.148; Dose.FC.CTG (log2 fold change) (ENR+CD organoids; dose 10.00 uM): −0.470; Dose.FC.LYZ.S (log2 fold change) ([2]; dose 0.08 uM): 0.132; Dose.FC.LYZ.S (log2 fold change) ([2]; dose 0.40 uM): 0.189; Dose.FC.LYZ.S (log2 fold change) ([2]; dose 2.00 uM): 0.019; Dose.FC.LYZ.S (log2 fold change) ([2]; dose 10.00 uM): −0.253
O=C(Nc1cccc(Nc2ncc(Br)c(NCCc3cnc[nH]3)n2)c1)N1CCCC1 [BX-912] |  |  |  |  |  |  |  |  | 0.010 | 0.017 | −0.089 | −0.196 | 0.043 | 0.054 | −0.246 | −0.397 | 0.038 | 0.042 | −0.161 | −0.272 | Z.LYZ.NS ([1]; dose 0.08 uM): 0.090; Z.LYZ.NS ([1]; dose 0.40 uM): 0.151; Z.LYZ.NS ([1]; dose 2.00 uM): −0.771; Z.LYZ.NS ([1]; dose 10.00 uM): −1.704; Z.CTG (ENR+CD organoids; dose 0.08 uM): 0.103; Z.CTG (ENR+CD organoids; dose 0.40 uM): 0.129; Z.CTG (ENR+CD organoids; dose 2.00 uM): −0.587; Z.CTG (ENR+CD organoids; dose 10.00 uM): −0.949
C[C@H](Cn1cnc2c(N)ncnc21)OCP(=O)(O)O [Tenofovir] | 0.673 | −0.662 | −1.153 | −1.899 | 0.045 | −0.200 | −0.308 | −0.804 | 0.077 | −0.076 | −0.132 | −0.218 | 0.019 | −0.084 | −0.129 | −0.337 | 0.045 | −0.080 | −0.171 | −0.271 | 
